Read-outs that look alike come from different tables or passages of the source.

Common to all, as to format: in vivo
Test [1] relates to Green Peach Aphid (Myzus persicae). Put plainly: Test on controlling effects against green peach aphid (leaf dip). The settings on record: foliar, 120 h, Japanese radish leaf dipped about 10 seconds, first instar nymphs, 5 days after the treatment, 25° C. The text has this: Test on Controlling Effects Against Green Peach Aphid (Myzus persicae)
A Japanese radish leaf was inserted in a test tube in which water was put, and about 20 first instar nymphs of green peach aphid were released on the leaf. On the next day, the number of nymphs parasitic on the leaf was counted, and then the leaf was dipped for about 10 seconds in an insecticidal solution prepared to bring the concentration of the compound of the present invention to 200 ppm, dried in air and left in a constant temperature chamber at 25° C. with lightening. Dead nymphs were counted 5 days after the treatment, and the mortality was calculated by the following equation. The insects dropped from the leaf or presented toxic symptom were counted as dead insects. […] Mortality (%)=(1−(number of survived insects/number of treated insects))×100

The subject of test [2] is Brown Planthopper (Nilaparvata lugens). Put plainly: Test on controlling effects against brown planthopper (rice seedling dip). The text has this:
Test on Controlling Effects Against Brown Planthopper (Nilaparvata lugens)
Rice seedling was dipped for about 10 seconds in an insecticidal solution prepared to bring the concentration of the compound of the present invention to 200 ppm and then dried in air, its root was wrapped with a wet absorbent cotton, and the seedling was put into a test tube. Then, 10 second-third instar nymphs of Brown Planthopper were released therein, and the test tube was covered with a gauze and left in a constant temperature chamber at 25° C. with lightening. On the 5th day after the release, dead nymphs were counted, and the mortality was calculated by the following equation.

Test [3] concerns Silverleaf Whitefly (Bemisia Argentifolii). Put plainly: Test on controlling effects against silverleaf whitefly (cucumber seedling spray). The settings on record: 168 h, hand spray to cucumber seedling, first-second instar nymphs, 7 days after the treatment, 25° C., read-out: protective value. How it is done: Test on Controlling Effects Against Silverleaf Whitefly (Bemisia Argentifolii) An insecticidal solution prepared to bring the concentration of the compound of the present invention to 200 ppm was applied by a hand spray to cucumber seedling planted in a pot on which first-second instar nymphs of silverleaf whitefly were parasitic, and dried in air. Thereafter, the cucumber seedling was left in a constant temperature chamber at 25° C. with lightening. The number of old instar nymphs was counted 7 days after the treatment, and the protective value (%) was obtained by the following equation. […] Protective value (%)=(1−((Ta×Cb)/(Tb×Ca)))×100 Ta: The number of old instar nymphs after the treatment at the treated cucumber seedling Tb: The number of first-second instar nymphs before the treatment at the treated cucumber seedling Ca: The number of old instar nymphs after the treatment at the untreated cucumber seedling Cb: the number of first-second instar nymphs before the treatment at the untreated cucumber seedling

[4] abbreviates: 200 ppm, rice seedling dipped about 10 seconds, second-third instar nymphs, 5th day after the release, 25° C., read-out: mortality.

Take `Cc1cc(-c2ncc(C(F)(F)F)cc2[N+](=O)[O-])n2ncnc2n1` [compound 78]: the mortality at 200 ppm in test [1] is no less than 90%.

For the molecule `CCc1cc(-c2ncc(C(F)(F)F)cc2Cl)n2ncnc2n1` [compound No. 16, 7-(3-chloro-5-(trifluoromethyl)pyridin-2-yl)-5-ethyl-[1,2,4]triazolo[1,5-a]pyrimidine], the mortality at 200 ppm in test [1] and in test [2] (setting [4]) was no less than 90% throughout. The pest or weed control at 200 ppm in test [3] is no less than 80%. In the case of `FC(F)(F)c1cnc(-c2cc(C3CCCC3)nc3ncnn23)c(Cl)c1` [compound 107], the mortality at 200 ppm in test [2] (setting [4]) is no less than 90%.

Take `Cc1cc(-c2ncc(C(F)(F)F)cc2Cl)n2ncnc2n1` [compound No. 19, 7-(3-chloro-5-(trifluoromethyl)pyridin-2-yl)-5-methyl-[1,2,4]triazolo[1,5-a]pyrimidine]: the mortality at 200 ppm in test [1] and in test [2] (setting [4]) was no less than 90% in each case. Further, the pest or weed control at 200 ppm in test [3] is no less than 80%. Turning to `CC(C)c1cc(-c2ncc(C(F)(F)F)cc2Br)n2ncnc2n1` [compound No. 95, 7-(3-bromo-5-(trifluoromethyl)pyridin-2-yl)-5-isopropyl-[1,2,4]triazolo[1,5-a]pyrimidine], the mortality at 200 ppm in test [1] and in test [2] (setting [4]) was no less than 90% throughout. Take `CC1(c2cc(-c3ncc(C(F)(F)F)cc3Cl)n3ncnc3n2)CC1` [compound 98]: the mortality at 200 ppm in test [2] (setting [4]) is no less than 90%.

Regarding `FC(F)(F)c1cnc(-c2ccnc3ncnn23)c(Br)c1` [compound No. 4, 7-(3-bromo-5-(trifluoromethyl)pyridin-2-yl)-[1,2,4]triazolo[1,5-a]pyrimidine], the mortality at 200 ppm in test [1] and in test [2] (setting [4]) was no less than 90% throughout. Besides, the pest or weed control at 200 ppm in test [3] was no less than 80%. In the case of `Cc1cc(-c2ncc(C(F)(F)F)cc2I)n2ncnc2n1` [compound 41], the mortality at 200 ppm in test [1] and in test [2] (setting [4]) was no less than 90% throughout. For the molecule `CCc1cc(C(F)(F)F)cnc1-c1cc(C)nc2ncnn12` [compound 79], the mortality at 200 ppm in test [1] and in test [2] (setting [4]) was no less than 90% in each case. `CC(C)(C)c1cc(-c2ncc(C(F)(F)F)cc2Cl)n2ncnc2n1` [compound 89]: the mortality at 200 ppm in test [2] (setting [4]) was no less than 90%.

`FC(F)(F)c1cnc(-c2cc(C3CC3)nc3ncnn23)c(Br)c1` [compound 94]: the mortality at 200 ppm in test [1] and in test [2] (setting [4]) was no less than 90% in each case. Besides, the pest or weed control at 200 ppm in test [3] was no less than 80%. Consider `N#Cc1cc(C(F)(F)F)cnc1-c1ccnc2ncnn12` [compound 14], for which, in test [3], the pest or weed control at 200 ppm was no less than 80%.

Take `Cc1cc(-c2cc(C(F)(F)F)cc(C(F)(F)F)n2)n2ncnc2n1` [compound 51]: the mortality at 200 ppm in test [1] is no less than 90%. Turning to `Cc1cc(-c2nc(Cl)c(C(F)(F)F)cc2F)n2ncnc2n1` [compound 105], the mortality at 200 ppm in test [2] (setting [4]) was no less than 90%.

On to `CC(C)c1cc(-c2ncc(C(F)(F)F)cc2Cl)n2ncnc2n1` [compound 80], for which the mortality at 200 ppm in test [1] and in test [2] (setting [4]) was no less than 90% each time. Besides, the pest or weed control at 200 ppm in test [3] was no less than 80%. As to `N#Cc1cc(-c2ncc(C(F)(F)F)cc2Cl)n2ncnc2n1` [compound 70], in test [2] (setting [4]), the mortality at 200 ppm was no less than 90%. Turning to `FC(F)(F)c1cnc(-c2cc(-c3ccco3)nc3ncnn23)c(Cl)c1` [compound 91], the mortality at 200 ppm in test [2] is no less than 90%. In turn, `Cc1cc(-c2ccc(C(F)(F)F)cn2)n2ncnc2n1` [compound 18] yielded a mortality at 200 ppm in test [1] of no less than 90%. In test [3], the pest or weed control at 200 ppm was no less than 80%. As for `CCCCc1cc(-c2ncc(C(F)(F)F)cc2Cl)n2ncnc2n1` [compound 83], in test [2] (setting [4]), the mortality at 200 ppm is no less than 90%. On to `Fc1cc(C(F)(F)F)cnc1-c1ccnc2ncnn12` [compound 5], for which the pest or weed control at 200 ppm in test [3] is no less than 80%. Regarding `FC(F)(F)c1cnc(-c2cc(C3CC3)nc3ncnn23)c(Cl)c1` [compound No. 82, 7-(3-chloro-5-(trifluoromethyl)pyridin-2-yl)-5-cyclopropyl-[1,2,4]triazolo[1,5-a]pyrimidine], the mortality at 200 ppm in test [1] and in test [2] (setting [4]) was no less than 90% throughout. Besides, in test [3], the pest or weed control at 200 ppm was no less than 80%. Consider `O=[N+]([O-])c1cc(C(F)(F)F)cnc1-c1ccnc2ncnn12` [compound 12], for which, in test [2] (setting [4]), the mortality at 200 ppm was no less than 90%. Moreover, the pest or weed control at 200 ppm in test [3] was no less than 80%. With `Cc1cc(-c2nc(Cl)c(C(F)(F)F)cc2Cl)n2ncnc2n1` [compound 68], the mortality at 200 ppm in test [1] and in test [2] (setting [4]) was no less than 90% in each case. `CCCc1cc(-c2ncc(C(F)(F)F)cc2Cl)n2ncnc2n1` [compound 17]: the mortality at 200 ppm in test [1] and in test [2] (setting [4]) was no less than 90% in each case. The pest or weed control at 200 ppm in test [3] was no less than 80%.

`Cc1cc(-c2ncc(C(F)(F)F)cc2C)n2ncnc2n1` [compound 44]: the mortality at 200 ppm in test [1] and in test [2] (setting [4]) was no less than 90% in each case. For the same molecule, the pest or weed control at 200 ppm in test [3] was no less than 80%. With `Cc1cc(-c2ncc(C(F)(F)F)cc2C#N)n2ncnc2n1` [compound 43], the mortality at 200 ppm in test [1] and in test [2] (setting [4]) was no less than 90% in each case. Take `Cc1cc(-c2ncc(C(F)(F)F)cc2Br)n2ncnc2n1` [compound 15]: the mortality at 200 ppm in test [1] and in test [2] (setting [4]) was no less than 90% in each case. The pest or weed control at 200 ppm in test [3] was no less than 80%. Turning to `FC(F)(F)c1cnc(-c2cc(C3CCC3)nc3ncnn23)c(Cl)c1` [compound 99], the mortality at 200 ppm in test [2] (setting [4]) was no less than 90%. Same read-out and setting: next, `Cc1cc(-c2ncc(C(F)(F)F)cc2-c2ccccc2)n2ncnc2n1` [compound 52]: no less than 90%. As to `FC(F)(F)c1cnc(-c2cc(C(F)(F)F)nc3ncnn23)c(Cl)c1` [compound No. 20, 7-(3-chloro-5-(trifluoromethyl)pyridin-2-yl)5-(trifluoromethyl)-[1,2,4]triazolo[1,5-a]pyrimidine], the mortality at 200 ppm in test [1] and in test [2] (setting [4]) was no less than 90% in each case. For the same molecule, the pest or weed control at 200 ppm in test [3] is no less than 80%. For the molecule `Cc1cc(-c2ncc(Cl)cc2C(F)(F)F)n2ncnc2n1` [compound 57], in test [2] (setting [4]), the mortality at 200 ppm is no less than 90%.

(Values after patent US8124760B2, “Pyridyl-triazolopyrimidine derivative or its salt, pesticide containing it and its production process” (Ishihara Sangyo Kaisha, Ltd., priority 2007, dated 2012).)
